Patent US9393221B2, “Methods and compounds for reducing intracellular lipid storage” (THE GENERAL HOSPITAL CORPORATION, priority 2011, dated 2016)
Structures can show the parent of a compound that is named as a salt.

Key:
ATGL-KO iPSCs [1] = test: High throughput iPSC chemical screening, Oil Red O (ORO) lipid accumulation; format: cell-based, mouse; conditions: for Rank in normalized ORO score from screen: glycolytic switch compounds; for Z-score: normalized ORO level vs DMSO-treated cells, compound present during 7 days differentiation, 96-well, negative = decrease in lipid accumulation
ATGL-KO mice = test: 18-week observer-blinded placebo-controlled treatment study; format: in vivo, mouse; conditions: for cardiac function (echocardiography): 14 weeks of age; for overall triglyceride content in the heart: 14 weeks old ATGL-KO mice (FIG. 8d)
Excerpt: FIGS. 8a-8f show graphs of the in vivo validation of the drug hit efficacy on ATGL-KO mice. (FIG. 8a) Kaplan-Meier survival plot of ATGL-KO mice treated with Mefloquine (N=15), Perhexyline (N=15), Vinpocetin low dose (N=15), Vinpocetin high dose (N=15), or water alone (N=15) (FIG. 8b) Contractile function of wild type mice treated with Mefloquine (Mef), Perhexyline (Per), Vinpocetin (Vin), and water (None) at 3 weeks of age before drug treatment (black) and at 18 weeks of age (white) after drug treatment. (FIG. 8c) Contractile function of ATGL-KO mice treated with Mef, Per, Vin, and water at 3 weeks of age before drug treatment (black) and at 10 (gray), and 14 (white) weeks of age after drug treatment. (FIG. 8d) Measurement of triglyceride content in hearts of 14 weeks old wild type (WT) and ATGL-KO (KO) mice after treatment with the indicated drugs. V (H)—vinpocetin high dose, V (L)—vinpocetin low dose. (FIG. 8e) Measurement of triglyceride content in the liver, lung, and kidney of WT mice (gray) and ATGL-KO mice treated with Per (red), Mef (green), V (H) (blue), V (L) (orange), or water (black). (FIG. 8f) Quantitative PCR analysis of metabolic gene expression in the hearts of 14 weeks old ATGL-KO mice treated with water (black), Per (red), and Mef (green) and in the hearts of age-matched WT mice (gray).
We designed an 18-week observer-blinded placebo-controlled study treating both wild type and ATGL-KO mice with mefloquine, perhexyline, and high and low doses of vinpocetin starting from 3 weeks after birth. We assess the survival of each animal throughout the entire treatment course. We also measured the cardiac function of each animal before treatment and at 10 and 14 weeks of age. […] The effect of these drugs on triglyceride content was observed variably in other tissues such as liver, lung, and kidney (FIG. 8e). While these drugs were able to elicit a similar reduction in triglyceride content, they appear to do so by recruiting genes involved in distinct pathways. (FIG. 8f)

NLSD-M human iPSCs = test: TG content in differentiated human iPSCs; format: cell-based; conditions: differentiated human NLSD-M iPSCs (FIG. 9b)
ATGL-KO iPSCs [2] = test: Cellular metabolism assay (OCR, ECAR); format: cell-based, mouse; conditions: for extracellular acidification rate (ECAR) / oxygen consumption rate (OCR): day 9 differentiated cells pre-treated overnight at screen concentration; for OCR/ECAR ratio after addition of CCCP: pre-treated cells (FIG. 7d)
Method: (§1) FIGS. 7a-7g depict that glycolytic switch inducers modulate the metabolic profile of WT and KO iPSCs. Measurement of (FIG. 7a) oxygen consumption rate (OCR) and (FIG. 7b) extracellular acidification rate (ECAR) in WT and KO iPSCs at day 10 of differentiation following compound pre-treatment for 16 h. Data are expressed as mean±s.d. (n=10 samples, with 3 measurements each) relative to DMSO-treated WT cells. (*P<0.001, student's t-test between compound-treated and DMSO ? treated cells of same type. **P<0.001, student's t-test between DMSO-treated WT and KO cells). Measurement of OCAR/ECAR ratios for drug-treated (FIG. 7c) WT and (FIG. 7d) KO iPSCs following treatment carbonyl cyanide m-chlorophenyl hydrazone (CCCP), at the time indicated (arrow). Antimycin, an electron transport chain inhibitor, was added to each well at the end of the assay to verify that mitochondrial function was intact in drug-treated cells. A schematic model of ATGL ? mediated lipid metabolism in shown for (FIG. 7e) WT cells, (FIG. 7f) KO cells, and (FIG. 7g) drug-treated KO cells.
(§2) We next investigated whether the top-scoring compounds with reported glycolytic switch properties could in fact modulate the OCR and ECAR of differentiated WT and KO iPSCs. We pre-treated day 9 differentiated cells overnight with mefloquine, vinpocetine, and perhexyline at their screen concentrations (Table 3) and measured the changes in OCR and ECAR. […] This is consistent with the increased adaptation to glucose in ATGL-KO cells.
(§3) To determine whether the glycolytic switch inducers work through common or distinct mechanisms, we next examined how the responses of ATGL-KO and WT cells to challenge with carbonyl cyanide m-chlorophenyl hydrazone (CCCP) differed upon pre-treatment with glycolytic switch inducers. CCCP is an uncoupler of the mitochondrial hydrogen gradient that induces maximal cellular oxidative respiration (Goldsby et al., 1963). […] This was due entirely to an increase in OCAR, as the ECAR levels remained relatively unchanged (data not shown).
(§4) ATGL-KO and WT iPSCs were differentiated as EBs to day 9, then collagenase-dissociated and re-plated onto gelatin-coated XF24 plates (Seahorse Bioscience, Andover, Mass.) at a density of 250,000 cells/well. Following an overnight incubation (12-16 hrs) in differentiation medium supplemented with drugs or DMSO, the cells were acclimated to atmospheric CO2 in drug-containing buffer-free medium (Wu, M. et al., 2007) for 1 hour at 37° C. Oxygen consumption rates (OCR) and extracellular acidification rates (ECAR) were measured on the Seahorse Extracellular Flux 24 Analyzer using previously established procedures (Gohil et al., 2010; Wu, M. et al., 2007) and normalized against cell number as assessed by the resazurin assay described above. In all wells, antimycin, an electron transport chain inhibitor, was added at the end of the assay to ascertain that mitochondrial function in the drug-treated cells had been intact and that the OCR and ECAR results were not due to direct mitochondrial toxicity effects from drug treatment.

WT iPSCs = test: Cellular metabolism assay (OCR, ECAR); format: cell-based, mouse; conditions: for extracellular acidification rate (ECAR) / oxygen consumption rate (OCR): day 9 differentiated cells pre-treated overnight at screen concentration; for OCR/ECAR ratio after addition of CCCP: pre-treated cells (FIG. 7c)
Method: as §1, §2, §3, §4

SMILES: OC(c1cc(C(F)(F)F)nc2c(C(F)(F)F)cccc12)C1CCCCN1 (stereo not shown) [Mefloquine hydrochloride]
- Rank in normalized ORO score from screen (ATGL-KO iPSCs [1]): 3
- Z-score (ATGL-KO iPSCs [1]): −2.3573
- cardiac function (echocardiography) (ATGL-KO mice): echocardiographic improvements in cardiac function
- overall triglyceride content in the heart (ATGL-KO mice): reduction in the overall triglyceride content in the heart
- intracellular lipid content (TG content) (NLSD-M human iPSCs): significantly reduce intracellular lipid content
- extracellular acidification rate (ECAR) (ATGL-KO iPSCs [2]): increased ECAR
- oxygen consumption rate (OCR) (ATGL-KO iPSCs [2]): decreased OCR
- OCR/ECAR ratio after addition of CCCP (ATGL-KO iPSCs [2]): increased the ratio of OCAR/ECAR
- extracellular acidification rate (ECAR) (WT iPSCs): increased ECAR
- oxygen consumption rate (OCR) (WT iPSCs): decreased OCR
- OCR/ECAR ratio after addition of CCCP (WT iPSCs): increased the ratio of OCAR/ECAR

SMILES: C1CCC(C(CC2CCCCN2)C2CCCCC2)CC1 (stereo not shown) [Perhexiline maleate]
- Rank in normalized ORO score from screen (ATGL-KO iPSCs [1]): 4
- Z-score (ATGL-KO iPSCs [1]): −2.3117
- cardiac function (echocardiography) (ATGL-KO mice): echocardiographic improvements in cardiac function
- overall triglyceride content in the heart (ATGL-KO mice): reduction in the overall triglyceride content in the heart
- impact on OCR in KO cells compared to WT cells (ATGL-KO iPSCs [2]): smaller impact on OCR in KO cells compared to WT cells
- extracellular acidification rate (ECAR) (ATGL-KO iPSCs [2]): increased ECAR
- oxygen consumption rate (OCR) (ATGL-KO iPSCs [2]): decreased OCR
- OCR/ECAR ratio after addition of CCCP (ATGL-KO iPSCs [2]): no increase in the OCR/ECAR ratio
- extracellular acidification rate (ECAR) (WT iPSCs): increased ECAR
- oxygen consumption rate (OCR) (WT iPSCs): decreased OCR
- OCR/ECAR ratio after addition of CCCP (WT iPSCs): no increase in the OCR/ECAR ratio

SMILES: CCOC(=O)C1=C[C@]2(CC)CCCN3CCc4c(n1c1ccccc41)[C@@H]32 [Vinpocetine]
- Rank in normalized ORO score from screen (ATGL-KO iPSCs [1]): 2
- Z-score (ATGL-KO iPSCs [1]): −2.4105
- overall triglyceride content in the heart (ATGL-KO mice): reduction in the overall triglyceride content in the heart
- extracellular acidification rate (ECAR) (ATGL-KO iPSCs [2]): increased ECAR
- oxygen consumption rate (OCR) (ATGL-KO iPSCs [2]): decreased OCR
- OCR/ECAR ratio after addition of CCCP (ATGL-KO iPSCs [2]): increased the ratio of OCAR/ECAR
- extracellular acidification rate (ECAR) (WT iPSCs): increased ECAR
- oxygen consumption rate (OCR) (WT iPSCs): decreased OCR
- OCR/ECAR ratio after addition of CCCP (WT iPSCs): increased the ratio of OCAR/ECAR
